Positions count from the first letter of the chain named.
Tests used:
R190H ATR [1] = biological target: T1, R190H ATR (Homo sapiens, UniProt Q96EY8, R190H); assay: AdoCbl synthesis, steady-state kinetics; format: biochemical
T1 construct: The expression construct for recombinant human full-length and ΔN18 ATR in a pET-28b vector; His-tag (thrombin-cleavable) (N, cleaved yes); made in house; host or cells: E. coli BL21 (DE3)
T1 sequence (Q96EY8 38-250 R190H limits assumed): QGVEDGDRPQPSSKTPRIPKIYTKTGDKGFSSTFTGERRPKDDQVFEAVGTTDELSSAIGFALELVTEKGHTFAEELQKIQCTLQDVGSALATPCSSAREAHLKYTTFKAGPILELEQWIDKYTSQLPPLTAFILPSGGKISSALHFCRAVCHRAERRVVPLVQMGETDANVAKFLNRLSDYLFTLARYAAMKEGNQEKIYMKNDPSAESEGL
Method: (§1) AdoCbl synthesis was determined by mixing cob(II)alamin (40 μM) in buffer A at 20 °C with ∼10 equivalents of titanium citrate under strictly anaerobic conditions. The reaction was started by addition of ATP (1 mM) and ATR (1 μM trimer concentration). The concentration of cob(I)alamin formed by reduction of cob(II)alamin was estimated using ε386nm = 28.0 cm^−1 mM^−1. The rate of AdoCbl synthesis was determined by measuring the change in absorbance at 522 nm using Δ ε522nm =5.06 mM^−1 cm^−1.

E193K ATR [2] = biological target: T2, E193K ATR (Homo sapiens, UniProt Q96EY8, E193K); assay: AdoCbl synthesis, steady-state kinetics; format: biochemical; design: WT and the R190C variants of ΔN18-ATR and full-length E193K ATR were purified; His-tag (thrombin-cleavable) (N, cleaved yes); made in house; host or cells: E. coli BL21 (DE3)
T2 sequence (Q96EY8 38-250 E193K limits assumed): T1 sequence (Q96EY8 38-250 R190H limits assumed) with H153R, E156K
Method: as §1

R190C ATR [3] = biological target: T3, R190C ATR (Homo sapiens, UniProt Q96EY8, R190C); assay: AdoCbl synthesis, steady-state kinetics; format: biochemical; design: The expression construct for recombinant human full-length and ΔN18 ATR in a pET-28b vector; His-tag (thrombin-cleavable) (N, cleaved yes); made in house; host or cells: E. coli BL21 (DE3)
T3 sequence (Q96EY8 38-250 R190C limits assumed): T1 sequence (Q96EY8 38-250 R190H limits assumed) with H153C
Method: as §1

WT ATR [4] = biological target: T4, WT ATR (Homo sapiens, UniProt Q96EY8); assay: AdoCbl synthesis, steady-state kinetics; format: biochemical; design: The expression construct for recombinant human full-length and ΔN18 ATR in a pET-28b vector; His-tag (thrombin-cleavable) (N, cleaved yes); made in house; host or cells: E. coli BL21 (DE3)
T4 sequence (Q96EY8 38-250 limits assumed): T1 sequence (Q96EY8 38-250 R190H limits assumed) with H153R
Method: as §1

R190H ATR [5] = biological target: T1, R190H ATR; assay: AdoCbl binding to ATR, UV-visible titration
Method: (§2) Unless noted otherwise, all titration experiments were performed in buffer A. AdoCbl binding was monitored by adding increasing concentrations of WT or mutant ATR to 30 μM AdoCbl in buffer A at 20 °C. The spectrum was recorded 5 min after each addition. The concentration of bound AdoCbl was determined using […] = 8.0 cm^−1 mM^−1. The change in absorbance at 455 nm (corresponding to base-off AdoCbl bound to ATR) was plotted versus ATR concentration and fitted using the Dynafit software (BioKin) ([35]). Equation 1 (where A is the absorbance at 455 nm following each aliquot of ATR, ΔAmax is the maximal change in absorbance at 455 nm upon binding of AdoCbl to ATR, [E]t is the concentration of ATR active sites, and [L]t is the total AdoCbl concentration) was used to determine the dissociation constant for AdoCbl.(1) A=ΔAmax×([E]t+[L]t+Kd)+([E]t+[L]t+Kd)^2−4[L]t[E]t/2[L]t
(§3) The effect of PPPi on the KD for AdoCbl was determined by performing the above titration in the presence of 1 mM PPPi under anaerobic conditions.

E193K ATR [6] = biological target: T2, E193K ATR; assay: AdoCbl binding to ATR, UV-visible titration; design: WT and the R190C variants of ΔN18-ATR and full-length E193K ATR were purified; His-tag (thrombin-cleavable) (N, cleaved yes); made in house; host or cells: E. coli BL21 (DE3)
Method: as §2, §3

R190C ATR [7] = biological target: T3, R190C ATR; assay: AdoCbl binding to ATR, UV-visible titration; design: The expression construct for recombinant human full-length and ΔN18 ATR in a pET-28b vector; His-tag (thrombin-cleavable) (N, cleaved yes); made in house; host or cells: E. coli BL21 (DE3)
Method: as §2, §3

WT ATR [8] = biological target: T4, WT ATR; assay: AdoCbl binding to ATR, UV-visible titration; design: The expression construct for recombinant human full-length and ΔN18 ATR in a pET-28b vector; His-tag (thrombin-cleavable) (N, cleaved yes); made in house; host or cells: E. coli BL21 (DE3)
Method: as §2, §3

E193K ATR [9] = biological target: T2, E193K ATR; settings: 1.1:1.0:1.0 E193K ATR:AdoCbl:PPPi
Method: (§4) The samples were prepared in an anaerobic chamber and contained: PPPi (1 mM), WT, R190C or E193K ATR (1.1 mM active sites), MgCl2 (2 mM), AdoCbl (1 mM) in 50 mM Hepes buffer pH 7.5 containing 150 mM KCl and 2 mM DTT at room temperature. The samples were transferred to 5-mm (internal diameter) NMR tubes (Wilmad-Glass), and the final volume was brought up to 0.4 ml with 90% water and 10% D2O (Cambridge Isotope Labs).
(§5) […] NMR spectra were collected at 242.5 MHz on a Bruker AVANCE NEO spectrometer equipped with a prodigy cryoprobe locked to D2O. All the NMR experiments were carried out at 25 °C using 12 μs 90° pulse widths, 8192 data points, and 4096 scans with 0.8 s recycle time. The chemical shifts were reported on proton-decoupled spectra by Gaussian line fits to the singlet resonances, relative to an external standard of 85% H3P0_4.

R190C ATR [10] = biological target: T3, R190C ATR; settings: 1.1:1.0:1.0 R190C ATR:AdoCbl:PPPi
Method: as §4, §5

WT ATR [11] = biological target: T4, WT ATR; settings: WT ATR 1.1 mM active sites, PPPi 1 mM, no AdoCbl
Method: as §4, §5

SMILES: Nc1ncnc2c1ncn2[C@@H]1O[C@H](COP(=O)(O)OP(=O)(O)OP(=O)(O)O)[C@@H](O)[C@H]1O [ATP]
- lower activity (kcat) relative to WT ATR (R190H ATR [1]; R190H ATR vs WT): 115 fold
- kcat (R190H ATR [1]; R190H ATR, AdoCbl synthesis, cob(II)alamin 40 μM, titanium citrate, anaerobic, 20 °C): 0.0017 ± 0.0017 s⁻¹
- increase of KM for ATP relative to WT ATR (E193K ATR [2]; E193K ATR vs WT): 52 fold
- kcat (E193K ATR [2]; E193K ATR, AdoCbl synthesis, cob(II)alamin 40 μM, titanium citrate, anaerobic, 20 °C): 0.18 ± 0.01 s⁻¹
- Km (E193K ATR [2]; E193K ATR, read-out: KM (ATP)): 235 ± 16 µM
- increase of KM for ATP relative to WT ATR (R190C ATR [3]; R190C ATR vs WT): 20 fold
- lower activity (kcat) relative to WT ATR (R190C ATR [3]; R190C ATR vs WT): 16 fold
- kcat (R190C ATR [3]; R190C ATR, AdoCbl synthesis, cob(II)alamin 40 μM, titanium citrate, anaerobic, 20 °C): 0.012 ± 0.0017 s⁻¹
- Km (R190C ATR [3]; R190C ATR, read-out: KM (ATP)): 92 ± 31 µM
- kcat (WT ATR [4]; AdoCbl synthesis, cob(II)alamin 40 μM, titanium citrate, anaerobic, 20 °C): 0.192 ± 0.0267 s⁻¹
- Km (WT ATR [4]; read-out: KM (ATP)): 4.5 ± 1.1 µM

SMILES: C/C1=C2/[N-][C@H]([C@H](CC(N)=O)[C@@]2(C)CCC(=O)NC[C@@H](C)OP(=O)([O-])O[C@H]2[C@@H](O)[C@@H](n3cnc4cc(C)c(C)cc43)O[C@@H]2CO)[C@]2(C)N=C(/C(C)=C3N=C(/C=C4N=C1[C@@H](CCC(N)=O)C\4(C)C)[C@@H](CCC(N)=O)[C@]\3(C)CC(N)=O)[C@@H](CCC(N)=O)[C@]2(C)CC(N)=O.[CH2-][C@H]1O[C@@H](n2cnc3c(N)ncnc32)[C@H](O)[C@@H]1O.[Co+3] [AdoCbl, 5′-deoxyadenosylcobalamin]
- Kd (R190H ATR [5]; 1 mM PPPi, anaerobic): 13 ± 3 µM
- lower KD(AdoCbl) in the presence of PPPi (R190H ATR [5]; PPPi 1 mM): 3.9 fold
- Kd (R190H ATR [5]; without PPPi, buffer A, 20 °C): 50 ± 5 µM
- Kd (E193K ATR [6]; 1 mM PPPi, anaerobic): 100 ± 20 µM
- effect of PPPi on KD for AdoCbl (E193K ATR [6]; PPPi 1 mM): no effect
- Kd (E193K ATR [6]; without PPPi, buffer A, 20 °C): 120 ± 30 µM
- Kd (R190C ATR [7]; 1 mM PPPi, anaerobic): 4 ± 1 µM
- lower KD(AdoCbl) in the presence of PPPi (R190C ATR [7]; PPPi 1 mM): 10 fold
- Kd (R190C ATR [7]; without PPPi, buffer A, 20 °C): 40 ± 6 µM
- Kd (WT ATR [8]; 1 mM PPPi, anaerobic): 0.2 ± 0.1 µM
- decrease of KD for AdoCbl by PPPi (WT ATR [8]; PPPi 1 mM): 5 fold
- Kd (WT ATR [8]; without PPPi, buffer A, 20 °C): 1 ± 0.3 µM

SMILES: O=P(O)(O)OP(=O)(O)OP(=O)(O)O [PPPi, inorganic triphosphate]
- PPPi binding by 31P NMR (E193K ATR [9]): did not lead to detectable PPPi binding
- PPPi binding by 31P NMR (R190C ATR [10]): did not lead to detectable PPPi binding
- PPPi binding by 31P NMR (WT ATR [11]): not bound to the protein

Reference: article PMC8633584, “Patient mutations in human ATP:cob(I)alamin adenosyltransferase differentially affect its catalytic versus chaperone functions” (The Journal of Biological Chemistry, 2021)
